Results reported in the NIST ThermoML archive (doi:10.1021/je101178u).
“And” between values parts separate entries of the source, which are not always exact repeats. Identical values can stand only once.

Conditions: Fluid (supercritical or subcritical phases); for viscosity: vibrating wire; for mass density: Buoyancy - hydrostatic balance with magnetic suspension - one sinker

CC [ethane]
Conditions | mass density | viscosity
307.15 K, 29063 kPa | – | 0.07227 mPa·s
307.15 K, 29978 kPa | 436.186 kg/m3 and 436.185 kg/m3 | 0.07317 mPa·s and 0.07325 mPa·s
307.15 K, 29979 kPa | 436.187 kg/m3 | 0.07323 mPa·s
307.15 K, 29980 kPa | 436.189 kg/m3 | 0.07314 mPa·s and 0.07319 mPa·s
423.15 K, 95.75 kPa | 0.82018 kg/m3 | 0.01277 mPa·s
423.15 K, 95.83 kPa | 0.82091 kg/m3 | 0.01276 mPa·s
423.15 K, 117.47 kPa | 1.0068 kg/m3 | 0.01277 mPa·s
423.15 K, 117.64 kPa | 1.0082 kg/m3 | 0.01277 mPa·s
423.15 K, 117.73 kPa | 1.009 kg/m3 | 0.01277 mPa·s
423.15 K, 226.59 kPa | 1.947 kg/m3 | 0.0128 mPa·s
423.15 K, 226.76 kPa | 1.9485 kg/m3 | 0.0128 mPa·s
423.15 K, 459.37 kPa | 3.9693 kg/m3 | 0.01284 mPa·s
423.15 K, 459.46 kPa | 3.9701 kg/m3 | 0.01284 mPa·s
423.15 K, 691.62 kPa | 6.0097 kg/m3 | 0.0129 mPa·s
423.15 K, 691.95 kPa | 6.0126 kg/m3 | 0.01289 mPa·s
423.15 K, 915.95 kPa | 8.0024 kg/m3 | 0.01294 mPa·s
423.15 K, 916.03 kPa | 8.0031 kg/m3 | 0.01294 mPa·s
423.15 K, 1136.5 kPa | 9.9828 kg/m3 | 0.01298 mPa·s
423.15 K, 1136.7 kPa | 9.9843 kg/m3 | 0.01298 mPa·s
423.15 K, 1357.6 kPa | 11.99 kg/m3 | 0.01303 mPa·s
423.15 K, 1357.9 kPa | 11.993 kg/m3 | 0.01303 mPa·s
423.15 K, 1576.5 kPa | 13.999 kg/m3 | 0.01306 mPa·s and 0.01307 mPa·s
423.15 K, 1794.4 kPa | 16.02 kg/m3 | 0.01312 mPa·s
423.15 K, 1795 kPa | 16.025 kg/m3 | 0.01311 mPa·s
423.15 K, 2007.1 kPa | 18.014 kg/m3 | 0.01317 mPa·s
423.15 K, 2007.2 kPa | 18.015 kg/m3 | 0.01317 mPa·s
423.15 K, 2209.1 kPa | 19.928 kg/m3 | 0.01322 mPa·s
423.15 K, 2209.2 kPa | 19.929 kg/m3 | 0.01322 mPa·s
423.15 K, 3243 kPa | 30.033 kg/m3 | 0.01352 mPa·s
423.15 K, 3244.5 kPa | 30.048 kg/m3 | 0.01351 mPa·s
423.15 K, 4164.4 kPa | 39.494 kg/m3 | 0.01382 mPa·s
423.15 K, 4164.5 kPa | 39.495 kg/m3 | 0.01382 mPa·s
423.15 K, 4551.5 kPa | 43.602 kg/m3 | 0.01395 mPa·s
423.15 K, 4555.3 kPa | 43.642 kg/m3 | 0.01396 mPa·s
423.15 K, 5910.6 kPa | 58.665 kg/m3 | 0.01454 mPa·s
423.15 K, 5914.3 kPa | 58.707 kg/m3 | 0.01455 mPa·s
423.15 K, 6746.2 kPa | 68.424 kg/m3 | 0.01497 mPa·s
423.15 K, 6746.9 kPa | 68.432 kg/m3 | 0.01497 mPa·s
423.15 K, 7528 kPa | 77.889 kg/m3 | 0.01542 mPa·s
423.15 K, 7530.1 kPa | 77.915 kg/m3 | 0.01542 mPa·s
423.15 K, 8298.5 kPa | 87.517 kg/m3 | 0.0159 mPa·s
423.15 K, 8300.8 kPa | 87.546 kg/m3 | 0.0159 mPa·s
423.15 K, 9235.9 kPa | 99.586 kg/m3 | 0.01656 mPa·s
423.15 K, 9238.5 kPa | 99.621 kg/m3 | 0.01656 mPa·s
423.15 K, 10732 kPa | 119.465 kg/m3 | 0.01774 mPa·s
423.15 K, 10733 kPa | 119.476 kg/m3 | 0.01775 mPa·s
423.15 K, 12215 kPa | 139.509 kg/m3 | 0.0191 mPa·s
423.15 K, 12218 kPa | 139.549 kg/m3 | 0.01909 mPa·s
423.15 K, 13727 kPa | 159.706 kg/m3 | 0.02062 mPa·s
423.15 K, 13728 kPa | 159.722 kg/m3 | 0.02062 mPa·s
423.15 K, 15325 kPa | 180.142 kg/m3 | 0.02234 mPa·s
423.15 K, 15327 kPa | 180.168 kg/m3 | 0.02234 mPa·s
423.15 K, 16990 kPa | 199.904 kg/m3 | 0.0242 mPa·s
423.15 K, 16991 kPa | 199.911 kg/m3 | 0.02421 mPa·s
423.15 K, 16992 kPa | 199.925 kg/m3 | 0.0242 mPa·s
423.15 K, 18872 kPa | 220.003 kg/m3 | 0.02632 mPa·s
423.15 K, 18874 kPa | 220.02 kg/m3 | 0.02632 mPa·s
423.15 K, 18878 kPa | 220.065 kg/m3 | 0.02633 mPa·s
423.15 K, 21034 kPa | 240.207 kg/m3 and 240.204 kg/m3 | 0.0287 mPa·s
423.15 K, 23414 kPa | 259.265 kg/m3 | 0.03119 mPa·s
423.15 K, 23415 kPa | 259.275 kg/m3 | 0.0312 mPa·s
423.15 K, 26527 kPa | 280.132 kg/m3 | 0.03425 mPa·s
423.15 K, 26529 kPa | 280.144 kg/m3 | 0.03424 mPa·s
423.15 K, 30162 kPa | 300.101 kg/m3 | 0.03757 mPa·s
423.15 K, 30174 kPa | 300.162 kg/m3 | 0.03757 mPa·s
423.15 K, 30181 kPa | 300.195 kg/m3 | 0.03756 mPa·s
423.15 K, 30183 kPa | 300.204 kg/m3 | 0.03758 mPa·s
